Results on six compounds are retold here after patent US20070249545A1, “DIHYDROFOLATE REDUCTASE INHIBITION BY EPIGALLOCATECHIN GALLATE COMPOUNDS” (priority 2004, published 2007).

SMILES strings stand for the structures. Read-outs that look alike come from different tables or passages of the source.

In general, Km refers to the concentration of substrate that gives half-maximal velocity. Usually Ki stands for a dissociation constant, usually derived from enzyme kinetics or from competition with a known ligand. Read a low Ki as higher affinity.

One experiment concerns the target T1, bovine liver DHFR (Bos taurus, UniProt P00376).
T1 construct: from tissue; host or cells: bovine liver
T1 sequence (P00376 1-187): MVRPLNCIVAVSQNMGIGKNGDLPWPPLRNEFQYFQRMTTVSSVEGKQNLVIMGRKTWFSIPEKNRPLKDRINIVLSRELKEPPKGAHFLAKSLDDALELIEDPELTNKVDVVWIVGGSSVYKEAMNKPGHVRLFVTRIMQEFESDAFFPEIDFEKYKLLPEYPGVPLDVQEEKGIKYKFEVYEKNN
In words: Kinetic analysis of inhibition of bovine liver DHFR. It counts as biochemical. The protocol:
The activity of DHFR was determined at 25° C. by following the decrease of NADPH and DHF by absorbance measurements at 340 nm (ε=11,800 M^−1 cm^−1) by using a Perkin-Elmer Lambda-2 spectrophotometer with cuvettes of 1.0 cm light-path.
Experiments were performed at pH 7.58 and 25° C. in a buffer containing 2-(N-morpholino)ethanesulfonic acid (MES, 25 mM), sodium acetate (25 mM), tris(hydroxymethyl)aminomethane (Tris 50 mM), and NaCl (100 mM). To prevent the oxidation of catechins, the reaction mixture contained 1 mM ascorbic acid. The pH of the reaction was measured before and after of the experiment. The assays were started by the addition of enzyme. In the absence of the enzyme, the rate of change of absorbance was negligible. […]
Progress curves for the slow, tight-binding inhibition of bovine liver DHFR by EGCG were determined by continuously monitoring the disappearance of NADPH and DHF after initiation of the reaction by the addition of 3.3 nM enzyme. Reaction mixtures contained buffer, NADPH (100 μM), DHF (20 μM) and EGCG. Assuming that the concentration of free inhibitor is not substantially altered by the formation of an enzyme-NADPH-inhibitor complex, the progress curve for the inhibition in the presence of saturating NADPH is described by Eqn. (1): P=vst+(v0−vs)(1−exp(−k′t))/k′
where vs, v0 and k′ represent the steady-state velocity, initial velocity and apparent first-order rate constant, respectively.
The values of k′ at different EGCG concentrations were obtained by non-linear regression analysis of the progress curves. KI and KI* denote the respective dissociation constants for the initial and equilibrium binding of inhibitors to the enzyme-NADPH complex (FIG. 5).

The target of experiment [1] is T2, recombinant human DHFR (rHDHFR) (Homo sapiens, UniProt P00374).
T2 sequence (P00374 1-187): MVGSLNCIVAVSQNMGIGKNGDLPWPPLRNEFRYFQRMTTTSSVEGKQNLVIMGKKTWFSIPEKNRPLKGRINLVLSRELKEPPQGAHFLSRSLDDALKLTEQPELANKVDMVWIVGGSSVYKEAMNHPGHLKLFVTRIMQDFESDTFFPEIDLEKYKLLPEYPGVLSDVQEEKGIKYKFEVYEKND
The experiment is described as follows: Inhibition of human DHFR by tea catechins. The experiment is classed as biochemical.

A further experiment deals with S. maltophilia DHFR (Stenotrophomonas maltophilia, UniProt B2FPG1). The experiment is classed as biochemical. The conditions noted are these: for Km: partially purified S. maltophilia DHFR, substrate. The protocol: For the DHFR extraction, S. maltophilia strain number 1, was inoculated onto fresh agar 24 h before using. Then, liquid medium was inoculated with the strain and these broth cultures were incubated at 37° C. and shaken at 100 cycles per min. Solid medium was MacConkey agar (Oxoid Ltd., Basingstoke, England). Liquid medium was Brilliant Green Bile 2% broth (Oxoid). Bacteria were grown to mid-log phase, harvested by centrifugation (1,600 rpm 30 min) and washed twice in 50 mM phosphate buffer (pH 7.0) followed each time by a new centrifugation (1,600 rpm 5 min). Cell lysis, centrifugation, and dialysis were carried out between 4 and 8° C. Fast protein liquid chromatography (FPLC) purification steps were performed at room temperature. […] After centrifugation at 36,000 rpm for 30 min to remove cell debris, the supernatant was filtered. This supernatant was brought to 40% saturation with solid ammonium sulfate under continuous stirring. After 1 h the solution was centrifuged at 35,000 rpm for 30 min and the pellet discarded. Additional ammonium sulfate was added to the clear supernatant to give 90% saturation and stirred for 1 h. After centrifugation, the precipitates were suspended in 2 ml of buffer B (10 mM potassium phosphate buffer, pH 7.4, 2 mM β-mercaptoethanol). Concentrated enzyme (2 ml samples) was loaded onto a […] gel-filtration column (Sephacryl S-75 16/60 Hi-Prep, Amersham Pharmacia Biotech Europe GmbH, Barcelona, Spain), equilibrated with buffer B and eluted at 0.5 ml/min. The active fractions were concentrated and stored at −80° C. until used.
Initial velocity inhibition experiments were carried out for the inhibition studies of S. maltophilia with TMP and EGCG. One substrate (NADPH) was held constant at saturating concentration while the other substrate (DHF) and the inhibitor (TMP or EGCG) were varied. To prevent the oxidation of EGCG the reaction mixture contained 1 mM N-acetylcysteine (Sigma). For MTX inhibition the slow development of […] inhibition was determined by continuously monitoring the disappearance of NADPH and DHF after initiation of the reaction by the addition of DHFR. Reaction mixtures contained buffer, NADPH (100 μM), DHF (20 μM), and various concentrations of MTX. The extent of recovery of enzymatic activity following inhibition induced by preincubation with DHFR inhibitors was determined as follows. DHFR was preincubated for 30 min at 25° C. in the buffer mixture containing MTX, TMP or EGCG. An aliquot of the incubation mixture was then diluted 500-fold into a reaction mixture containing buffer mixture, NADPH (100 μM), and DHF (20 μM). Recovery of enzyme activity was followed by continuous monitoring at 340 nm.
Provided that the concentration of free inhibitor is not substantially altered by the formation of an enzyme-NADPH-inhibitor complex, the progress curve for the inhibition in the presence of saturating NADPH can be described by Eqn. 1 (as above): P=vst+(v0−vs)(1−exp(−kobst))/kobs • where vs, v0 and kobs represent the steady-state velocity, initial velocity and apparent first-order rate constant, respectively. The apparent first-order rate constant is related to the inhibitor concentration by Eqn. 2, where Ki denotes the dissociation constants for the initial binding of MTX to the enzyme-NADPH complex. [formula]

The subject of the next experiment is L1210 cells. The experiment is described as follows: EGCG cytotoxicity / growth of L1210 cells. The conditions noted are these: L1210; hypoxanthine-thymidine (HT) medium; EGCG 20 μM. The experiment is classed as cell-based, mouse. The protocol:
L1210 cells were plated at a density of 10,000 cells/ml in 96-well plates with a “standard folate” RPMI 1640 medium supplemented with 10% FCS. Reversion experiments were carried out in an HT medium and/or by adding 50 μM ascorbic acid (AA). Cell injury was evaluated by a calorimetric assay for mitochondrial function using the MTT test.^29
The effect of different EGCG concentrations on L1210 cell growth after 29 h of treatment at two different folic acid concentrations was determined. The cells were previously adapted over a period of 2-3 days to grow in folate-free RPMI 1640 medium supplemented with 10% dialyzed FCS and 2 mM glutamine. This medium is subsequently referred to as LF (low folate). For the cytotoxicity assay, the cells were grown in LF media supplemented with folic acid (3 μM or 300 nM). Treatments were carried out in triplicate, and each experiment performed at least twice. Cell growth was determined by two different methods, Coulter counter Z2 and hemocytometer (FIG. 7). IC50 values were determined at each folic acid concentration added to the medium.
The growth-inhibitory effects of 10 μM EGCG at various folic acid concentrations were determined at two different time intervals. L1210 cells were cultured in a LF medium supplemented with the corresponding folic acid concentration. The data were obtained by using a Coulter counter and hemocytometer and expressed assuming a zero percentage of growth inhibition for untreated control (FIG. 8). Cells were maintained in the corresponding medium with 100 μg/ml of penicillin and streptomycin at 37° C. in a humid 7.5% CO2, […] environment for all the experiments.

For the next experiment, the system named is p16. In words: p16 methylation status in Caco-2 cells. Conditions: EGCG 20 μM, 7-days treatment.

Chain of S. maltophilia DHFR (B2FPG1 entry or part of it): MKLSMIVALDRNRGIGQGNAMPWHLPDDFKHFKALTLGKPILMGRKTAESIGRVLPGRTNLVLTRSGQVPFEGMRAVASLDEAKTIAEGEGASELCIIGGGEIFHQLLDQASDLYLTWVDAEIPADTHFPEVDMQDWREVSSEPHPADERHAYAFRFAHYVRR

In the case of `Oc1cc(O)c2c(c1)O[C@H](c1cc(O)c(O)c(O)c1)[C@H](O)C2` [EGC, (−)-epigallocatechin, reference compound], the “inhibition of DHFR activity” value against bovine liver DHFR was “did not inhibit”. In addition, the “inhibition of rHDHFR activity” value in experiment [1] was “did not inhibit”.
As for `Nc1nc(=O)c2c([nH]1)NCC(CNc1ccc(C(=O)N[C@@H](CCC(=O)O)C(=O)O)cc1)=N2` [DHF, 7,8-dihydrofolate], the Michaelis-Menten constant (Km) at S. maltophilia DHFR (pH 8.0) is 1.8 µM.
Consider `COc1cc(Cc2cnc(N)nc2N)cc(OC)c1OC` [trimethoprim], for which, at S. maltophilia DHFR, the inhibition constant (Ki) was found to be 4.69 µM, the “Type of inhibition observed” value is listed as “competitive (reversible)” and the “effect of preincubation of the enzyme with inhibitor” value was “did not produce any measurable inhibition”.
On to `CN(Cc1cnc2nc(N)nc(N)c2n1)c1ccc(C(=O)N[C@@H](CCC(=O)O)C(=O)O)cc1` [methotrexate], for which, in the experiment with L1210 cells, the “growth inhibition in HT medium” value was “greatly attenuated”. Also, on S. maltophilia DHFR (S. maltophilia DHFR), the “Type of inhibition observed” value is listed as “competitive (slow-”. Moreover, the k1 at S. maltophilia DHFR (S. maltophilia DHFR, calculated by using Eqn. 3) was 6.17e+07 M⁻¹ s⁻¹. Moreover, at S. maltophilia DHFR (S. maltophilia DHFR, pH 8.0), the “rate constant k2” value is 0.0011 s⁻¹. For the same compound, the p16 methylation pattern entry in the experiment on p16 is given as “reversal of hypermethylation was observed”.
For the compound `NC(=O)C1=CN([C@@H]2O[C@H](COP(=O)(O)OP(=O)(O)OC[C@H]3O[C@@H](n4cnc5c(N)ncnc54)[C@H](OP(=O)(O)O)[C@@H]3O)[C@@H](O)[C@H]2O)C=CC1` [NADPH], at S. maltophilia DHFR (pH 8.0), the Km is 12 µM.
As for `O=C(O[C@@H]1Cc2c(O)cc(O)cc2O[C@@H]1c1ccc(O)c(O)c1)c1cc(O)c(O)c(O)c1` [ECG, (−)-epicatechin gallate], on bovine liver DHFR, the “inhibition of DHFR activity” value is reported as “potent inhibitor”, the k5 is 0.11 min⁻¹, the k5/k6 was determined as 7.1 ratio and the k6 was 0.015 min⁻¹. At bovine liver DHFR (KI*, equilibrium binding to enzyme-NADPH complex), the Ki came out at 0.00655 µM. Further, the Ki at bovine liver DHFR (KI, initial binding to enzyme-NADPH complex, pH 7.58, 25° C.) worked out at 0.0513 µM. Besides, the “inhibition of rHDHFR activity” value in experiment [1] is recorded as “potent inhibitors”.
